Source: patent publication US20050287225A1, “Metal cluster nano-compounds for treating tumor diseases” (priority 2002, published 2005)

Legend:
[1] = system: MOR/CPR lung cancer cells, cisplatin-resistant; test: In-vitro cytotoxicity MTT assay (Example 4); assay type: cell-based, human
Experimental: (§1) The in-vitro cytotoxicity was studied by means of the MTT assay (Promega), a colorimetric method in which a tetrazolium-based compound is reduced by living cells to give formazan. The amount of formazan formed is directly proportional to the number of living cells in the culture. Each cell line was incubated in microliter dishes for 48 hours before adding the medicaments. Cisplatin or Au55 was added, followed by an incubation for 72 or 24 hours. Subsequently, the MTT assays were carried out following Promega's information.
Diagram 4 relates to in-vitro cytotoxicity assays on cisplatin-resistant MOR/CPR lung tumor cells, incubated with different concentrations of Au55(Ph2PC6H4SO3H)12Cl6 [Au55] for 24 hours. Each point represents 3 experiments carried out independently of one another and repeated in each case three times.
Diagramm 5 relates to in-vitro cytotoxicity assays on cisplatin-resistant MOR/CPR lung tumor cells incubated with different concentrations of free ligand, Ph2PC6H4SO3H, for 24 hours. Each point represents 3 independent experiments repeated in each case in triplicate.
Table 2 below depicts the inhibitory concentrations of cisplatin and [Au55] incubations with various cell lines over 72 and 24 hours, respectively. The IC50 data were calculated from the graphs obtained from the in vitro cytotoxicity assays MTT. […]

[2] = system: HeLa cervical cancer cells; test: In-vitro cytotoxicity MTT assay (Example 4); assay type: cell-based, human; settings: 72 h, read-out: IC50 cisplatin 72 h
Experimental: as §1
(§2) Table 2 below depicts the inhibitory concentrations of cisplatin and [Au55] incubations with various cell lines over 72 and 24 hours, respectively. The IC50 data were calculated from the graphs obtained from the in vitro cytotoxicity assays MTT. Each experiment was repeated three times independently from one another by way of determination in triplicate.

U205 osteosarcoma = test: In-vitro cytotoxicity MTT assay (Example 4); assay type: cell-based, human; settings: 72 h, read-out: IC50 cisplatin 72 h
Experimental: as §1, §2

[3] = In-vitro cytotoxicity MTT assay (Example 4); assay type: cell-based, human; settings: Hek, 72 h; read-out: IC50 cisplatin 72 h
Experimental: as §1, §2

[4] = system: MOR/P lung cancer cells, cisplatin-sensitive; test: In-vitro cytotoxicity MTT assay (Example 4); assay type: cell-based, human; settings: 72 h
Experimental: as §1, §2

BLM metastatic melanoma = test: In-vitro cytotoxicity MTT assay (Example 4); assay type: cell-based, human; settings: 72 h, read-out: IC50 cisplatin 72 h
Experimental: as §1, §2

MV3 metastatic melanoma = test: In-vitro cytotoxicity MTT assay (Example 4); assay type: cell-based, human; settings: 72 h, read-out: IC50 cisplatin 72 h
Experimental: as §1, §2

[5] = system: MOR/P lung cancer cells (cisplatin-sensitive); test: In-vitro cell toxicity, MTT colorimetry assay (Example 2); assay type: cell-based, human; settings: comparison value, incubation not stated
Experimental: (§3) The in-vitro cytotoxicity properties of the gold-55 particles (Au55) prepared in example 1. C) were carried out on HeLa cancer cells and on MOR/P and MOR/CPR lung cancer cells. MOR/P cells are sensitive to cisplatin, while MOR/CPR cells are resistant to cisplatin.
(§4) The HeLa cells were grown on a DMEM medium at 37° C. in a 5% CO2 atmosphere. The medium had been supplemented with 10% strength FCS serum and antibiotics. Daughter cultures were generated twice weekly. The MOR/P and MOR/CPR cells were grown on an RPMI 1640 medium at 37° C. in a 5% CO2 atmosphere. Said medium had likewise been supplemented with 10% strength FCS serum and antibiotics. Here too, daughter cultures were generated twice weekly.
(§5) The in-vitro cytotoxicity of the Au55 particles was determined in the following manner using 96-well microtiter plates and an MTT colorimetry assay (CellTiter 96® Aqueous One Solution Cell Proliferation Assay, Promega):
(§6) Cultures of each cell line were applied at a concentration of 1—10^5 cells/ml to the microtiter plates and grown in the above-described media at 37° C. in a 5% CO2 atmosphere for 72 hours. […]
(§7) Absorption at 490 nm was measured for each well of each microtiter plate by using a 96-well microtiter plate reader. The absorption measured at 490 nm was plotted as a function of the Au55 particle concentration and the IC50 value was determined.

[6] = system: MOR/CPR lung cancer cells (cisplatin-resistant); test: as above; assay type: cell-based, human; settings: comparison value, incubation not stated
Experimental: as §3, §4, §5, §6, §7

MC3 normal bone cells = test: In-vitro cytotoxicity MTT assay (Example 4); assay type: cell-based; settings: 72 h, read-out: IC50 cisplatin 72 h
Experimental: as §1, §2

Compound	IC50 ([1]; 72 h)	IC50 [2]	IC50 (U205 osteosarcoma)	IC50 [3]	IC50 [4]	IC50 (BLM metastatic melanoma)	IC50 (MV3 metastatic melanoma)	IC50 [5]	IC50 [6]	IC50 (MC3 normal bone cells)	Influence of the ligand molecules themselves on the life span of the cells ([1]; different concentrations of free ligand, 24 hours)
N.N.[Cl][Pt][Cl] [cisplatin, cis-diaminodichloroplatinum(II)]	7.1 ± 1.2 µM	7.93 ± 0.95 µM	11.2 ± 2.02 µM	20.1 ± 6 µM	3.3 ± 0.3 µM	54.7 ± 7.6 µM	> 50 µM	3.3 ± 0.3 µM	7.1 ± 1.2 µM	26.1 ± 1.27 µM	
O=S(=O)(O)c1cccc(P(c2ccccc2)c2ccccc2)c1 [ligand molecules, Ph2PC6H4SO3H]											cannot be detected
